Read-outs that look alike come from different tables or passages of the source.
What was measured:
[1] = human
in vivo [2] = details: female, BALB/c, mouse, 2 mg/kg; for half-life: Thalf (elimination half-life)
[3] = test system: Shiga-like toxin-1 (Stx-1), HeLa cells; assay: cells; format: cell-based, human; details: for EC50: Homo sapiens, HeLa, read-out: EC50 (Stx-1 intoxication assay)
[4] = Characterisation and stability of Retro-2.1 formulation in PLGA–PEG–PLGA; format: physicochemical
Experimental: The thin-film rehydration technique was also used to formulate Retro-2.1 in PLGA–PEG–PLGA, using acetone as a dissolution solvent and saline as a rehydration vehicle. As previously described, the polymer was prepared as a 20% (w/v) solution in saline. This solution was able to stably dissolve 3.25 mg/mL of Retro-2.1, with an encapsulation yield of 98% and a drug loading of 1.9%. […] Of note, above 42 °C, the polymer aggregated and separated from water, which is in accordance with other reported polymers with similar structures. The formulation was stable for at least 13 days when stored at 4 °C. However, like the formulation in PEG–PLA, the formulation in PLGA–PEG–PLGA lost 20% of its payload upon storage at 25 °C for 24 h (Figure S10). Subsequent formulations were therefore freshly prepared and stored at 4 °C before use.
(§1) Dynamic light scattering experiments were performed using a Vasco Flex particle size analyzer equipped with a 450 nm laser. Data were recorded at 20 °C using a refractive index of 1.331 and a solvent viscosity of 0.982 cP. For each sample, 10 acquisitions were realized using a noise limit of 1% and 200 channels with a time interval of 1 µs. All samples were analyzed at a concentration of 10 mg/mL in 4 mL glass vials (Lab File, Wheaton) unless otherwise noted.
In a round-bottom flask, Retro-2.1 (59.8 mg, 137 µmol) and PLGA–PEG–PLGA (3.00 g, 545 µmol) were dissolved in acetone (15 mL). The solvent was removed under reduced pressure to yield a translucent pale-yellow polymeric film, which was further dried under vacuum for 4 h. The film was rehydrated with saline (15 mL) at room temperature, and 2 M NaOH solution in water was added to reach a pH of 7. The solution was sterile-filtered on a 0.2 µm membrane (Millex®) into 6 mL sterile vials and stored at 4 °C until further use. The Retro-2.1 concentration was determined using HPLC after dilution of the solution in MeCN. Drug loadings and encapsulation efficiencies were calculated, as described before.
(§2) A sample of the formulation was placed in a 500 µL Eppendorf tube and stored at −20 °C, 4 °C or room temperature (20–25 °C). At each timepoint, the sample was centrifuged (15,000× g, 5 min, 4 °C) and the Retro-2.1 concentration in the supernatant was determined using HPLC.

[5] = Characterisation and stability of Retro-2.1 formulation in PEG–PLA micelles; format: physicochemical
Experimental: Retro-2.1 was encapsulated in PEG–PLA micelles using the thin-film hydration method, also known as the solvent casting method. This method allowed us to dissolve 4.55 mg/mL of the drug in 26.4 mg/mL of PEG–PLA solution, with an encapsulation yield of 91% and a drug loading of 15%, as determined with HPLC analysis using a calibration curve (Figure S1). […] As previously described, including for Genexol®-PM, these micelles are likely to be spherical. Although the zeta potential of these micelles was not determined in this study, PEG–PLA micelles are widely described to have a neutral to slightly negatively charged surface. […] However, about 35% of the drug load precipitated upon storage at room temperature for 24 h (Figure S3). Every subsequent formulation was therefore stored at −20 °C and thawed at 4 °C before use.
as §1
In a round-bottom flask, Retro-2.1 (92 mg, 211 µmol) and PEG–PLA (528 mg, 132 µmol) were dissolved in acetone (20 mL). The solvent was removed under reduced pressure to yield a transparent pale-yellow polymeric film, which was rehydrated with saline (15 mL) at 40 °C. Next, 2M NaOH solution in water was added to reach a pH of 7. The volume was adjusted to 20 mL with saline, and the solution was sterile-filtered on a 0.2 µm membrane (Millex®, Duluth, GA, USA) into several 6 mL sterile vials and stored at −20 °C until further use. The Retro-2.1 concentration was determined using HPLC after dilution of the solution in MeOH. Drug loadings and encapsulation efficiencies were calculated using the following formula:(1) encapsulation yield=100*mdrug dissolved/mdrug addeddrug loading=100* mdrug/mdrug+mpolymer
as §2

[6] = mouse
[7] = test system: Shiga-like toxin-1 (Stx-1), HeLa cells; details: cited from earlier work
in vivo [8] = details: female, BALB/c, mouse, ip, 50 mg/kg
[9] = Pharmacokinetic study in mice, Retro-2.1 in PLGA–PEG–PLGA hydrogel, 25 mg/kg SC; format: in vivo; details: for half-life: flip-flop pharmacokinetics, read-out: Thalf (apparent elimination half-life) (converted); for Cmax: mice plasma
[10] = mouse, in vivo, 2 mg/kg
[11] = mouse, in vivo, ip, 50 mg/kg
Aqueous solubility = format: physicochemical
[12] = SC injection of 25 mg/kg of Retro-2.1 in PLGA–PEG–PLGA, mice
[13] = female, BALB/c, mouse, plasma, SC injection of 25 mg/kg of Retro-2.1 in PLGA–PEG–PLGA, mice
[14] = female, BALB/c, mouse, SC injection of 25 mg/kg of Retro-2.1 in PLGA–PEG–PLGA

For `Cc1nc(-c2ccc(C3N(C)c4ccc(F)cc4C(=O)N3c3ccccc3)s2)cs1` (centres unmarked) [Retro-2.1, 6-fluoro-1-methyl-2-(5-(2-methylthiazol-4-yl)thiophen-2-yl)-3-phenyl-2,3-dihydroquinazolin-4(1H)-1], the Non-NADPH degradation [1] was < 5%, the Clint ([1]; microsomes) was 27.8 μL.min^−1.mg of protein^−1 and the “Metabolic stability at t = 45 min (remaining)” value ([1]; microsomes, 0.75 h) was 27.4%. The AUC (in vivo [2]; ip) was 0.322 µg·h/mL, the CL/F (in vivo [2]; ip) was 6.2 L/h/kg and the Cmax (in vivo [2]; ip) was 0.304 µg/mL. The MRT (in vivo [2]; ip) was 4.2 h, the Tmax (in vivo [2]; ip) was 5 min and the half-life (in vivo [2]; ip) was 5 h. It also gave an AUC (in vivo [2]; iv) of 0.213 µg·h/mL, a Cmax (in vivo [2]; iv) of 0.328 µg/mL and an MRT (in vivo [2]; iv) of 2.9 h. The Tmax (in vivo [2]; iv) was 5 min, the Vd (in vivo [2]; iv) was 27.5 L/kg and the clearance (in vivo [2]; iv) was 9.4 L/h/kg. The half-life (in vivo [2]; iv) was 6.7 h, the EC50 [3] was 0.09 µM and the “drug concentration stably dissolved in polymer solution” value ([4]; 20% (w/v) PLGA–PEG–PLGA in saline) was 3250 µg/mL. The drug loading ([4]; PLGA–PEG–PLGA) was 1.9%, the encapsulation yield ([4]; PLGA–PEG–PLGA) was 98% and the “formulation stable for” value ([4]; PLGA–PEG–PLGA formulation stored at 4 °C) was “at least 13 days”. For the same compound, the “payload lost upon storage” value ([4]; PLGA–PEG–PLGA formulation, 25 °C, 24 h) was 20%, the “temperature at which formulation starts solidifying” value ([4]; PLGA–PEG–PLGA formulation, inverted vial method) was 31 °C and the “micelle mean diameter (DLS)” value ([4]; Retro-2.1-loaded PLGA–PEG–PLGA micelles) was 24.1 nm. The “formulation stable for” value ([5]; PEG–PLA formulation stored at 4 °C and −20 °C) was “at least 48 h”, the “drug load precipitated upon storage” value ([5]; PEG–PLA formulation, room temperature, 24 h) was “about 35%” and the drug loading ([5]; PEG–PLA micelles) was 15%. The encapsulation yield ([5]; PEG–PLA micelles) was 91%, the “micelle mean diameter (DLS)” value ([5]; Retro-2.1-loaded PEG–PLA micelles) was 22.5 nm and the “drug concentration dissolved in polymer solution” value ([5]; in 26.4 mg/mL of PEG–PLA solution, thin-film hydration, HPLC) was 4550 µg/mL. For the same compound, the Non-NADPH degradation [6] was < 5%, the Clint ([6]; microsomes) was 460 μL.min^−1.mg of protein^−1 and the “times more potent than Retro-2” value [7] was “about 100 times”. The EC50 ([7]; read-out: EC50 against the Shiga toxin) was 0.102 µM, the AUC (in vivo [8]) was 18.5 µg·h/mL and the CL/F (in vivo [8]) was 2.7 L/h/kg. For the same compound, the Cmax (in vivo [8]) was 50.6 µg/mL, the MRT (in vivo [8]) was 1 h and the Tmax (in vivo [8]) was 0.0833 h. It also gave an AUCextra [9, 12] of 17%, a VSS [9, 12] of 456 L/kg and an AUC [9, 13] of 1.42 µg·h/mL. For the same compound, the CL/F [9, 13] was 17.6 L/h/kg, the MRT [9, 13] was 26 h and the Tmax [9, 13] was 2 h. For the same compound, the half-life [9, 13] was 19 h, the Cmax [9, 14] was 0.0752 µg/mL and the “duration of sustained release” value ([9]; mice, 25 mg/kg SC in PLGA–PEG–PLGA) was “at least 48 h”. For the same compound, the “signs of pain or acute toxicity” value ([9]; mice, 25 mg/kg SC in PLGA–PEG–PLGA, over 48 h) was “no sign of pain or acute toxicity was observed”, the AUCextra ([10]; female, BALB/c, ip) was 2.1% and the “Thalf (elimination half-life)” value ([10]; female, BALB/c, ip) was 6.7 h. For the same compound, the VSS ([10]; female, BALB/c, ip) was 26.3 L/kg, the “plasmatic concentration 7 h following injection” value ([10]; female, BALB/c, ip) was 21 nM and the AUCextra ([10]; female, BALB/c, iv) was 2.3%. The “Thalf (elimination half-life)” value ([10]; female, BALB/c, iv) was 5 h, the “plasmatic concentration 7 h following injection” value ([10]; female, BALB/c, iv) was 6 nM and the “signs of pain or acute toxicity” value [10] was “no sign of pain or acute toxicity was observed”. It also gave an AUCextra ([11]; female, BALB/c) of 0.1%, a Thalf ([11]; female, BALB/c) of 3.3 h and a VSS ([11]; female, BALB/c) of 2.8 L/kg. The “plasma detectability 24 h after injection” value [11] was “barely detectable”, the “signs of pain or acute toxicity” value [11] was “no apparent sign of pain or acute toxicity was observed” and the solubility (Aqueous solubility) was < 1 µg/mL.
For `CN1c2ccc(F)cc2C(=O)N(c2ccccc2)C1c1ccc(-c2csc(CO)n2)s1` (centres unmarked) [compound 3], the “fold less potent than Retro-2.1” value [3] was 80 fold, the EC50 [3] was 7.38 µM and the AUC (in vivo [8]) was 6.7 µg·h/mL. The Cmax (in vivo [8]) was 2.76 µg/mL, the MRT (in vivo [8]) was 3.43 h and the Tmax (in vivo [8]) was 0.25 h. For the same compound, the AUCextra [9, 12] was 12%, the AUC [9, 13] was 0.621 µg·h/mL and the MRT [9, 13] was 21 h. For the same compound, the Tmax [9, 13] was 2 h, the half-life [9, 13] was 15 h and the Cmax [9, 14] was 0.0393 µg/mL. The AUCextra ([11]; female, BALB/c) was 0.4% and the Thalf ([11]; female, BALB/c) was 3.7 h.
